Tested on: tobacco budworm (Heliothis virescens [Fabricius])
Assay: surface-treated diet test against the tobacco budworm
Format: in vivo
Settings: tobacco budworm second instar larvae, 0.25 millimoles of candidate insecticide on the surface of the diet, five-day exposure; for Percent Mortality: compared to total number of insects infested; for Percent Growth Inhibition: inhibition of insect weight relative to untreated controls
In short: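 Wheat germ artificial diet surface-treated with 40 µL of 50 mM DMSO stock diluted 1:7 in 1:1 water/acetone (0.25 millimolar on diet), or sub-multiples for rate tests. One second-instar larva per well, 25° C, 60% RH, 5 days; percent weight inhibition vs DMSO controls and percent mortality.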

SMILES | Percent Mortality (surface-treated diet) [%] | Percent Growth Inhibition (surface-treated diet) [%] | Percent Mortality [%] | Percent Growth Inhibition [%]
Fc1cc(F)cc(NC(=S)OC(c2ccc(C(F)(F)F)cc2)C2CCN(Cc3ccc(Oc4ccccn4)cc3)CC2)c1 (stereo not drawn) [Compound 681] | 100 | 100 |  | 
O=C(Nc1cc(F)cc(F)c1)OC(c1ccc(C(F)(F)F)cc1)C1CCN(Cc2ccc(Oc3cccc[n+]3[O-])cc2)CC1 (stereo not drawn) [Compound 682] | 100 | 100 |  | 
O=C(Nc1cc(F)cc(F)c1)OC(c1ccc(C(F)(F)F)cc1)C1CCN(Cc2ccc(Oc3ncccc3Cl)cc2)CC1 (stereo not drawn) [Compound 683] | 100 | 100 |  | 
O=C(Nc1cc(F)cc(F)c1)OC(c1ccc(C(F)(F)F)cc1)C1CCN(Cc2ccc(Oc3ccc(Cl)cn3)cc2)CC1 (stereo not drawn) [Compound 684] | 100 | 100 |  | 
O=C(Nc1cc(F)cc(F)c1)OC(c1ccc(C(F)(F)F)cc1)C1CCN(Cc2ccc(Oc3cccc(Cl)n3)cc2)CC1 (stereo not drawn) [Compound 685] | 100 | 100 |  | 
O=C(Nc1cc(F)cc(F)c1)OC(c1ccc(C(F)(F)F)cc1)C1CCN(Cc2ccc(Oc3ncc(Cl)cc3Cl)cc2)CC1 (stereo not drawn) [Compound 686] | 17 | 98 |  | 
N#Cc1cccnc1Oc1ccc(CN2CCC(C(OC(=O)Nc3cc(F)cc(F)c3)c3ccc(C(F)(F)F)cc3)CC2)cc1 (stereo not drawn) [Compound 687] | 100 | 100 |  | 
N#Cc1ccc(Oc2ccc(CN3CCC(C(OC(=O)Nc4cc(F)cc(F)c4)c4ccc(C(F)(F)F)cc4)CC3)cc2)nc1 (stereo not drawn) [Compound 688] | 100 | 100 |  | 
O=C(Nc1cc(F)cc(F)c1)OC(c1ccc(C(F)(F)F)cc1)C1CCN(Cc2ccc(Oc3ncccc3C(F)(F)F)cc2)CC1 (stereo not drawn) [Compound 689] | 100 | 100 |  | 
O=C(Nc1cc(F)cc(F)c1)OC(c1ccc(C(F)(F)F)cc1)C1CCN(Cc2ccc(Oc3cc(C(F)(F)F)ccn3)cc2)CC1 (stereo not drawn) [Compound 690] | 100 | 100 |  | 
O=C(Nc1cc(F)cc(F)c1)OC(c1ccc(C(F)(F)F)cc1)C1CCN(Cc2ccc(Oc3ccc(C(F)(F)F)cn3)cc2)CC1 (stereo not drawn) [Compound 691] | 100 | 100 |  | 
FC(F)(F)c1ccc(C(OC(=S)Nc2cccc(C(F)(F)F)c2)C2CCN(Cc3ccc(Oc4ccccn4)cc3)CC2)cc1 (stereo not drawn) [Compound 692] | 100 | 100 |  | 
FC(F)(F)c1ccc(NC(=S)OC(c2ccc(C(F)(F)F)cc2)C2CCN(Cc3ccc(Oc4ccccn4)cc3)CC2)cc1 (stereo not drawn) [Compound 693] | 100 | 100 |  | 
Cc1cccc(CNC(=O)OC(c2ccc(C(F)(F)F)cc2)C2CCN(Cc3ccc(Oc4ccccn4)cc3)CC2)c1 (stereo not drawn) [Compound 694] | 50 | 100 |  | 
Cc1ccc(CNC(=O)OC(c2ccc(C(F)(F)F)cc2)C2CCN(Cc3ccc(Oc4ccccn4)cc3)CC2)cc1 (stereo not drawn) [Compound 695] | 100 | 100 |  | 
Cc1ccc(S(=O)(=O)NC(=O)OC(c2ccc(C(F)(F)F)cc2)C2CCN(Cc3ccc(Oc4ccccn4)cc3)CC2)cc1 (stereo not drawn) [Compound 696] | 0 | 32 |  | 
O=C(Nc1cc(F)c(F)c(F)c1)OC(c1ccc(C(F)(F)F)cc1)C1CCN(Cc2ccc(Oc3ccccn3)cc2)CC1 (stereo not drawn) [Compound 697] | 100 | 100 |  | 
COc1ccc(CNC(=O)OC(c2ccc(C(F)(F)F)cc2)C2CCN(Cc3ccc(Oc4ccccn4)cc3)CC2)cc1 (stereo not drawn) [Compound 698] | 100 | 100 |  | 
COc1ccc(NC(=O)OC(c2ccc(C(F)(F)F)cc2)C2CCN(Cc3ccc(Oc4ccccn4)cc3)CC2)cc1Cl (stereo not drawn) [Compound 699] | 100 | 100 |  | 
COc1ccc(NC(=O)OC(c2ccc(C(F)(F)F)cc2)C2CCN(Cc3ccc(Oc4ccccn4)cc3)CC2)cc1F (stereo not drawn) [Compound 700] | 100 | 100 |  | 
O=C(Nc1ccc(OC(F)F)cc1)OC(c1ccc(C(F)(F)F)cc1)C1CCN(Cc2ccc(Oc3ccccn3)cc2)CC1 (stereo not drawn) [Compound 701] |  |  | 100 | 100
CSc1ccc(NC(=O)OC(c2ccc(C(F)(F)F)cc2)C2CCN(Cc3ccc(Oc4ccccn4)cc3)CC2)cc1 (stereo not drawn) [Compound 702] |  |  | 100 | 100
O=C(Nc1ccc(SC(F)(F)F)cc1)OC(c1ccc(C(F)(F)F)cc1)C1CCN(Cc2ccc(Oc3ccccn3)cc2)CC1 (stereo not drawn) [Compound 703] |  |  | 100 | 100
N#Cc1ccc(NC(=O)OC(c2ccc(C(F)(F)F)cc2)C2CCN(Cc3ccc(Oc4ccccn4)cc3)CC2)cc1 (stereo not drawn) [Compound 704] |  |  | 100 | 100

SMILES | Percent Mortality (surface-treated diet) [%] | Percent Growth Inhibition (surface-treated diet) [%] | Percent Mortality [%] | Percent Growth Inhibition [%]
CC(=O)c1ccc(NC(=O)OC(c2ccc(C(F)(F)F)cc2)C2CCN(Cc3ccc(Oc4ccccn4)cc3)CC2)cc1 (stereo not drawn) [Compound 705] |  |  | 17 | 100
O=C(Nc1ccc(Cl)cc1)OC(c1ccc(OC(F)(F)F)cc1)C1CCN(Cc2ccc(Oc3cccc[n+]3[O-])cc2)CC1 (stereo not drawn) [Compound 706] |  |  | 100 | 100
N#Cc1cccnc1Oc1ccc(CN2CCC(C(OC(=O)Nc3ccc(Cl)cc3)c3ccc(OC(F)(F)F)cc3)CC2)cc1 (stereo not drawn) [Compound 707] |  |  | 100 | 100
N#Cc1ccc(Oc2ccc(CN3CCC(C(OC(=O)Nc4ccc(Cl)cc4)c4ccc(OC(F)(F)F)cc4)CC3)cc2)nc1 (stereo not drawn) [Compound 708] |  |  | 100 | 100
O=C(Nc1cc(F)cc(F)c1)OC(c1ccc(OC(F)(F)F)cc1)C1CCN(Cc2ccc(Oc3cccc[n+]3[O-])cc2)CC1 (stereo not drawn) [Compound 709] |  |  | 100 | 100
N#Cc1cccnc1Oc1ccc(CN2CCC(C(OC(=O)Nc3cc(F)cc(F)c3)c3ccc(OC(F)(F)F)cc3)CC2)cc1 (stereo not drawn) [Compound 710] |  |  | 100 | 100
N#Cc1ccc(Oc2ccc(CN3CCC(C(OC(=O)Nc4cc(F)cc(F)c4)c4ccc(OC(F)(F)F)cc4)CC3)cc2)nc1 (stereo not drawn) [Compound 711] |  |  | 100 | 100
O=C(Nc1ccc(Cl)cc1)OC(c1ccc(Cl)cc1)C1CCN(Cc2ccc(Oc3ncccn3)cc2)CC1 (stereo not drawn) [Compound 712] |  |  | 100 | 100
O=C(Nc1cccc(F)c1)OC(c1ccc(Cl)cc1)C1CCN(Cc2ccc(Oc3ncccn3)cc2)CC1 (stereo not drawn) [Compound 713] |  |  | 100 | 100
O=C(Nc1cc(F)cc(F)c1)OC(c1ccc(Cl)cc1)C1CCN(Cc2ccc(Oc3ncccn3)cc2)CC1 (stereo not drawn) [Compound 714] |  |  | 100 | 100
O=C(Nc1ccc(Cl)cc1)OC(c1ccc(F)cc1)C1CCN(Cc2ccc(Oc3ncccn3)cc2)CC1 (stereo not drawn) [Compound 715] |  |  | 100 | 100
O=C(Nc1cccc(F)c1)OC(c1ccc(F)cc1)C1CCN(Cc2ccc(Oc3ncccn3)cc2)CC1 (stereo not drawn) [Compound 716] |  |  | 100 | 100
O=C(Nc1cc(F)cc(F)c1)OC(c1ccc(F)cc1)C1CCN(Cc2ccc(Oc3ncccn3)cc2)CC1 (stereo not drawn) [Compound 717] |  |  | 100 | 100
O=C(Nc1ccc(Cl)cc1)OC(c1ccc(Cl)cc1Cl)C1CCN(Cc2ccc(Oc3ncccn3)cc2)CC1 (stereo not drawn) [Compound 718] |  |  | 100 | 100
O=C(Nc1cccc(F)c1)OC(c1ccc(Cl)cc1Cl)C1CCN(Cc2ccc(Oc3ncccn3)cc2)CC1 (stereo not drawn) [Compound 719] |  |  | 100 | 100
O=C(Nc1cc(F)cc(F)c1)OC(c1ccc(Cl)cc1Cl)C1CCN(Cc2ccc(Oc3ncccn3)cc2)CC1 (stereo not drawn) [Compound 720] |  |  | 100 | 100
O=C(Nc1ccc(Cl)cc1)OC(c1ccc(Cl)c(Cl)c1)C1CCN(Cc2ccc(Oc3ncccn3)cc2)CC1 (stereo not drawn) [Compound 721] |  |  | 100 | 100
O=C(Nc1ccc(F)cc1)OC(c1ccc(Cl)c(Cl)c1)C1CCN(Cc2ccc(Oc3ncccn3)cc2)CC1 (stereo not drawn) [Compound 722] |  |  | 83 | 100
O=C(Nc1cc(F)cc(F)c1)OC(c1ccc(Cl)c(Cl)c1)C1CCN(Cc2ccc(Oc3ncccn3)cc2)CC1 (stereo not drawn) [Compound 723] |  |  | 100 | 100
O=C(Nc1cccc(C(F)(F)F)c1)OC(c1ccc(Cl)c(Cl)c1)C1CCN(Cc2ccc(Oc3ncccn3)cc2)CC1 (stereo not drawn) [Compound 724] |  |  | 100 | 100
O=C(Nc1ccc(C(F)(F)F)cc1)OC(c1ccc(Cl)c(Cl)c1)C1CCN(Cc2ccc(Oc3ncccn3)cc2)CC1 (stereo not drawn) [Compound 725] |  |  | 100 | 100
O=C(Nc1ccc(Cl)cc1)OC(c1cc(Cl)cc(Cl)c1)C1CCN(Cc2ccc(Oc3ncccn3)cc2)CC1 (stereo not drawn) [Compound 726] |  |  | 100 | 100
O=C(Nc1cccc(F)c1)OC(c1cc(Cl)cc(Cl)c1)C1CCN(Cc2ccc(Oc3ncccn3)cc2)CC1 (stereo not drawn) [Compound 727] |  |  | 100 | 100
O=C(Nc1cc(F)cc(F)c1)OC(c1cc(Cl)cc(Cl)c1)C1CCN(Cc2ccc(Oc3ncccn3)cc2)CC1 (stereo not drawn) [Compound 728] |  |  | 100 | 100
